# In publication PMC10313052, “Filarial DAF-12 sense the host serum to resume iL3 development during infection” (PLOS Pathogens, 2023):
# Target: T1, BmaDAF-12 (Brugia malayi, UniProt A0A4E9F2L4, R841H)
# T1 sequence (A0A4E9F2L4 639-880 R841H): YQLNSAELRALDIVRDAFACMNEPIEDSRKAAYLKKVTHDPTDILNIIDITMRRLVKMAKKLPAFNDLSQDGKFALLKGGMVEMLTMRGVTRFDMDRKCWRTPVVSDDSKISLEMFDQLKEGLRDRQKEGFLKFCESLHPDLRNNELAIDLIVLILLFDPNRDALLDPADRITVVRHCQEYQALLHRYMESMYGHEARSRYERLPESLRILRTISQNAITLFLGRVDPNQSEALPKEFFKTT
# Assay: cell-based
compound,measurement,value
"CC(CCCC(C)C1CCC2C3=CCC4CC(=O)CCC4(C)C3CCC21C)C(=O)O [Δ7-dafachronic acid, (25S)-Δ7-dafachronic acid]",EC50,1.8 nM
